Laboratory results from patent US20240262845A1, “PYRIDINIUM SALTS, METHODS OF MAKING, AND METHODS OF USE” (UNIVERSITY OF WYOMING, priority 2023, published 2024).
Where a name gives a salt, the structure may show the parent alone.

Assays:
[1] = tested on: Leuprolide; test: Photochemical labeling of leuprolide with pyridinium salt (General Procedure B, LC/MS); assay type: biochemical; conditions: 10 μM leuprolide, 100 μM pyridinium salt, 300 μM glutathione, 30 min
Method: (§1) General Procedure B: Photochemical Irradiation of Peptides and Proteins: To a 2 mL Pyrex LC/MS vial (Thermo model #03-391-39) were sequentially added solutions containing the desired biomolecule, glutathione (GSH), pyridinium salt, and ammonium acetate (NH4OAc). The resulting solution was diluted to a final volume of 500 μL and then sparged using nitrogen for a minimum of 30 minutes prior to irradiation. The actively sparging solution was then placed in an EvoluChem™ PhotoRedOx Box photoreactor that was equipped with a Kessil, PR160 427 nm LED Lamp and was then irradiated (100% lamp intensity) for the designated time at room temperature while maintaining active sparging. The resultant reaction mixture was then analyzed directly by LC/MS. Analysis of labeling outcomes using LC/MS was performed either by extracted ion chromatogram intensities (method A) or by integrating the area under the peaks associated with peptide content (method B). These values were totaled, and estimated percentages were assigned according to relative intensities of peaks or ion counts.
Labeling of Leuprolide with Pyridinium Salt 2a (Leuprolide-2a Conjugate). […] The reaction mixture was analyzed directly by LC/MS using method B and was estimated to have proceeded with 91% conversion, a >20:1 mono:di labeled ratio, and 4% of +1 label+glutathionylation. […]

[2] = target: T1, thioredoxin (Escherichia coli, UniProt P0AA25); test: Photochemical labeling of thioredoxin with pyridinium salt (General Procedure B, LC/MS); assay type: biochemical; conditions: trypsin digest
T1 construct: purchased Sigma Aldrich; host or cells: E. coli
T1 sequence (P0AA25 whole entry): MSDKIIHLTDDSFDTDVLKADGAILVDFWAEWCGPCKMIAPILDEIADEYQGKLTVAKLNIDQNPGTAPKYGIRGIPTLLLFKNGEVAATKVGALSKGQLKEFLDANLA
Method: as §1
Labeling of Thioredoxin with Pyridinium Salt 2a (Thioredoxin-2a Conjugate). […] The reaction mixture was directly analyzed by LC/MS using method A and was estimated to have proceeded with 93% conversion and a 14.5:1 mono:di labeled ratio and 3% glutathionylation of all protein content. […]

Structure (SMILES): COC(=O)N(C)[n+]1c(C)cc(-c2ccc3cc(OC)ccc3c2)cc1C [pyridinium salt 2a, 1-((methoxycarbonyl)(methyl)amino)-4-(6-methoxynapthalen-2-yl)-2,6-dimethylpyridin-1-ium tetrafluoroborate]
- +1 label+glutathionylation [1]: 4%
- Modified Trp [2]: Trp-31
